# In the SangsterLogP compilation:
# Experiment: method code SF-AS, from DOI: 10.1016/0006-2952(77)90261-1, PMID: 588293
# Conditions: for logD: pH 7.4
compound,measurement,value
C=CCC1(C(C)CCC)C(=O)NC(=O)NC1=O (configuration not stated),logD,1.97
CCC1(C2=CCCCC2)C(=O)NC(=O)NC1=O,logD,1.77
C=CCC1(CC(=C)Br)C(=O)NC(=O)NC1=O,logD,1.37
CCC1(C2=CCCCCC2)C(=O)NC(=O)NC1=O,logD,2.17
CCC1(C2=CCCCC2)C(=O)NC(=O)N(C)C1=O (configuration not stated),logD,2.25
C=C(Br)CC1(C(C)C)C(=O)NC(=O)N(C)C1=O (configuration not stated),logD,2.11
CCCC1(CC)C(=O)NC(=O)NC1=O,logD,0.66
C=CCC1(CC(C)(C)C)C(=O)NC(=O)NC1=O,logD,1.71
C=C(Br)CC1(C(C)CCC)C(=O)NC(=O)NC1=O (configuration not stated),logD,2.09
C=C(Br)CC1(C(C)CC)C(=O)NC(=O)N(C)C1=O (configuration not stated),logD,2.43
C=CCC1(C(C)C)C(=O)NC(=O)NC1=O,logD,1.22
CCCCCCCCC1(CC)C(=O)NC(=O)NC1=O,logD,3.08
CCC1(C2=CC3CCC(C2)C3)C(=O)NC(=O)N(C)C1=O (configuration not stated),logD,3.15
CCC1(CC(C)C(C)C)C(=O)NC(=O)NC1=O (configuration not stated),logP,2.02
C=C(Br)CC1(C(C)CC)C(=O)NC(=O)NC1=O (configuration not stated),logD,1.72
CCC1(C2=CC3CCC(C2)C3)C(=O)NC(=O)NC1=O (configuration not stated),logD,2.53
C=CCC1(C2C=CCC2)C(=O)NC(=O)NC1=O (configuration not stated),logD,1.51
CCCCCCC1(CC)C(=O)NC(=O)NC1=O,logD,2.46
C=C(Br)CC1(C(C)C)C(=O)NC(=O)NC1=O,logD,1.47
C=CCC1(C2=CCCC2)C(=O)NC(=O)N(C)C1=O (configuration not stated),logD,1.89
CCCCCCCC1(CC)C(=O)NC(=O)NC1=O,logD,2.91
CCC1(C2=CCCCCC2)C(=O)NC(=O)N(C)C1=O (configuration not stated),logD,2.82
